PubChem BioAssay (NCI)
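Five concentrations, 48 hours, 96-well plates. GI50 marks 50% less growth. The concentration for full growth arrest is given as TGI.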

Tests used:
Experiment in all cases: NCI anticancer screen, dose series, 48 h
786-0 renal = test system: 786-0 renal
A498 renal = test system: A498 renal
A549 NSCLC = test system: A549 NSCLC
ACHN renal = test system: ACHN renal
BT-549 breast = test system: BT-549 breast
CAKI-1 renal = test system: CAKI-1 renal
CCRF-CEM leukemia = test system: CCRF-CEM leukemia
DU-145 prostate = test system: DU-145 prostate
EKVX NSCLC = test system: EKVX NSCLC
HCC-2998 colon = test system: HCC-2998 colon
HCT-116 colon = test system: HCT-116 colon
HCT-15 colon = test system: HCT-15 colon
HL-60(TB) leukemia = test system: HL-60(TB) leukemia
HOP-62 NSCLC = test system: HOP-62 NSCLC
HOP-92 NSCLC = test system: HOP-92 NSCLC
HS 578T breast = test system: HS 578T breast
HT29 colon = test system: HT29 colon
IGROV1 ovarian = test system: IGROV1 ovarian
K-562 leukemia = test system: K-562 leukemia
KM12 colon = test system: KM12 colon
LOX IMVI melanoma = test system: LOX IMVI melanoma
M14 melanoma = test system: M14 melanoma
MCF7 breast = test system: MCF7 breast
MDA-MB-231 breast = test system: MDA-MB-231 breast
MDA-MB-435 = test system: MDA-MB-435
MOLT-4 leukemia = test system: MOLT-4 leukemia
NCI-H226 lung = test system: NCI-H226 lung
NCI-H23 lung = test system: NCI-H23 lung
NCI-H460 lung = test system: NCI-H460 lung
NCI/ADR-RES ovarian = test system: NCI/ADR-RES ovarian
OVCAR-3 ovarian = test system: OVCAR-3 ovarian
OVCAR-4 ovarian = test system: OVCAR-4 ovarian
OVCAR-5 ovarian = test system: OVCAR-5 ovarian
OVCAR-8 ovarian = test system: OVCAR-8 ovarian
PC-3 prostate = test system: PC-3 prostate
RPMI-8226 leukemia = test system: RPMI-8226 leukemia
RXF 393 renal = test system: RXF 393 renal
SF-268 CNS = test system: SF-268 CNS
SF-295 CNS = test system: SF-295 CNS
SF-539 CNS = test system: SF-539 CNS
SK-MEL-2 melanoma = test system: SK-MEL-2 melanoma
SK-MEL-28 melanoma = test system: SK-MEL-28 melanoma
SK-MEL-5 melanoma = test system: SK-MEL-5 melanoma
SK-OV-3 ovarian = test system: SK-OV-3 ovarian
SN12C renal = test system: SN12C renal
SNB-19 CNS = test system: SNB-19 CNS
SNB-75 CNS = test system: SNB-75 CNS
SR leukemia = test system: SR leukemia
SW-620 colon = test system: SW-620 colon
T-47D breast = test system: T-47D breast
TK-10 renal = test system: TK-10 renal
U251 CNS = test system: U251 CNS
UACC-257 melanoma = test system: UACC-257 melanoma
UO-31 renal = test system: UO-31 renal

CCCN(CCC)S(=O)(=O)c1ccc(C(=O)O)cc1.CCCN(CCC)S(=O)(=O)c1ccc(C(=O)O)cc1.[Cl][Pt+2][Cl].[NH2-].[NH2-]
GI50 (786-0 renal): 1.44 µM | TGI (786-0 renal): > 100 µM | GI50 (A498 renal): 29.6 µM | TGI (A498 renal): > 85.4 µM | GI50 (A549 NSCLC): 2.89 µM | TGI (A549 NSCLC): > 100 µM | GI50 (ACHN renal): 0.477 µM | TGI (ACHN renal): > 100 µM | GI50 (BT-549 breast): 0.369 µM | TGI (BT-549 breast): 1.9 µM | GI50 (CAKI-1 renal): 2.27 µM | TGI (CAKI-1 renal): > 100 µM | GI50 (CCRF-CEM leukemia): 0.138 µM | GI50 (DU-145 prostate): 0.351 µM | TGI (DU-145 prostate): > 100 µM | GI50 (EKVX NSCLC): 8.4 µM | TGI (EKVX NSCLC): > 100 µM | GI50 (HCC-2998 colon): 0.926 µM | TGI (HCC-2998 colon): 9.49 µM | GI50 (HCT-116 colon): 0.945 µM | TGI (HCT-116 colon): > 52 µM | GI50 (HCT-15 colon): > 100 µM | TGI (HCT-15 colon): > 100 µM | GI50 (HL-60(TB) leukemia): 0.221 µM | TGI (HL-60(TB) leukemia): > 100 µM | GI50 (HOP-62 NSCLC): 0.653 µM | TGI (HOP-62 NSCLC): > 95 µM | GI50 (HOP-92 NSCLC): 0.596 µM | TGI (HOP-92 NSCLC): > 21.8 µM | GI50 (HS 578T breast): 13.9 µM | TGI (HS 578T breast): > 100 µM | GI50 (HT29 colon): 2.76 µM | TGI (HT29 colon): > 100 µM | GI50 (IGROV1 ovarian): 3.6 µM | TGI (IGROV1 ovarian): 24.2 µM | GI50 (K-562 leukemia): 0.179 µM | TGI (K-562 leukemia): > 100 µM | GI50 (KM12 colon): 2.61 µM | TGI (KM12 colon): > 100 µM | GI50 (LOX IMVI melanoma): 0.349 µM | TGI (LOX IMVI melanoma): > 45.2 µM | GI50 (M14 melanoma): 1 µM | TGI (M14 melanoma): > 100 µM | GI50 (MCF7 breast): 0.149 µM | TGI (MCF7 breast): > 100 µM | GI50 (MDA-MB-231 breast): 3.15 µM | TGI (MDA-MB-231 breast): > 58.3 µM | GI50 (MDA-MB-435): 0.801 µM | TGI (MDA-MB-435): 2.72 µM | GI50 (MOLT-4 leukemia): 0.246 µM | TGI (MOLT-4 leukemia): > 100 µM | GI50 (NCI-H226 lung): 4.04 µM | TGI (NCI-H226 lung): 99.6 µM | GI50 (NCI-H23 lung): 0.249 µM | TGI (NCI-H23 lung): 2.81 µM | GI50 (NCI-H460 lung): 0.151 µM | TGI (NCI-H460 lung): > 68.6 µM | GI50 (NCI/ADR-RES ovarian): > 100 µM | TGI (NCI/ADR-RES ovarian): > 100 µM | GI50 (OVCAR-3 ovarian): 1.07 µM | TGI (OVCAR-3 ovarian): > 27 µM | GI50 (OVCAR-4 ovarian): 4.57 µM | TGI (OVCAR-4 ovarian): > 100 µM | GI50 (OVCAR-5 ovarian): 1.44 µM | TGI (OVCAR-5 ovarian): > 100 µM | GI50 (OVCAR-8 ovarian): 1.4 µM | TGI (OVCAR-8 ovarian): > 100 µM | GI50 (PC-3 prostate): 2.25 µM | TGI (PC-3 prostate): > 100 µM | GI50 (RPMI-8226 leukemia): 0.289 µM | GI50 (RXF 393 renal): 0.425 µM | TGI (RXF 393 renal): 5.08 µM | GI50 (SF-268 CNS): 0.7 µM | TGI (SF-268 CNS): > 100 µM | GI50 (SF-295 CNS): 1.64 µM | TGI (SF-295 CNS): > 100 µM | GI50 (SF-539 CNS): 0.289 µM | TGI (SF-539 CNS): > 33.2 µM | GI50 (SK-MEL-2 melanoma): 2.03 µM | TGI (SK-MEL-2 melanoma): 5.21 µM | GI50 (SK-MEL-28 melanoma): 0.733 µM | TGI (SK-MEL-28 melanoma): > 24.1 µM | GI50 (SK-MEL-5 melanoma): 0.476 µM | TGI (SK-MEL-5 melanoma): 1.8 µM | GI50 (SK-OV-3 ovarian): 1.58 µM | TGI (SK-OV-3 ovarian): 22 µM | GI50 (SN12C renal): 0.2 µM | TGI (SN12C renal): > 100 µM | GI50 (SNB-19 CNS): 1.6 µM | TGI (SNB-19 CNS): 60.5 µM | GI50 (SNB-75 CNS): 0.666 µM | TGI (SNB-75 CNS): 13.3 µM | GI50 (SR leukemia): 0.112 µM | TGI (SR leukemia): > 100 µM | GI50 (SW-620 colon): 0.518 µM | TGI (SW-620 colon): > 100 µM | GI50 (T-47D breast): 0.349 µM | TGI (T-47D breast): > 100 µM | GI50 (TK-10 renal): > 100 µM | TGI (TK-10 renal): > 100 µM | GI50 (U251 CNS): 0.995 µM | TGI (U251 CNS): > 84.2 µM | GI50 (UACC-257 melanoma): 2.13 µM | TGI (UACC-257 melanoma): > 100 µM | GI50 (UO-31 renal): > 72.6 µM | TGI (UO-31 renal): > 100 µM
